Assay results: patent US10513567B2, “Polycations and methods of making and using thereof” (Georgia Tech Research Corporation, priority 2016, dated 2019)

Test: Fragmentation (hydrolysis) of WCL pyridine adducts and oligocations in deuterated aqueous buffer followed by 1H NMR
Assay type: physicochemical
Protocol: The fragmentation of cationic adducts was followed by ^1H NMR in deuterated buffer, with the relative concentration of each species established by integration of unique resonances. Each adduct in Table 3 and Table 4 was thus examined in three independent runs.
Each adduct dinitrate was isolated, characterized, and heated at 50° C. in deuterated buffer; following the disappearance of the adduct by NMR, first-order rate constants of fragmentation were obtained.
Using the conditions of Table 4, three additional oligocations were prepared from the bis(pyridine) linkers as shown in Table 5. […] The stabilities of these compounds toward fragmentation under aqueous conditions were assessed by NMR in deuterated buffer, following the disappearance of the thiabicyclononane C—H resonance adjacent to the pyridine group (position g in FIG. 14) and the appearance of the corresponding resonance (4.3 ppm) for the diol product 4 (FIG. 6).

| Compound | kfrag, pseudo first order fragmentation (50° C., deuterated buffer) | kfrag, pseudo first order fragmentation (37° C.) | krel (37° C., relative to 5i) | krel (50° C., relative to 5e) |
| --- | --- | --- | --- | --- |
| COC(=O)c1ccc[n+](C2CCC3SC2CCC3[n+]2cccc(C(=O)OC)c2)c1.O=[N+]([O-])[O-].O=[N+]([O-])[O-] (centres unmarked) [Compound 5b, 2,6-di-3-methoxycarbonylpyridinium-9-thiabicyclo[3.3.1]nonane dinitrate] | (3.03 ± 0.38) × 10^−2 h^−1 |  |  |  |
| COC(=O)c1cc[n+](C2CCC3SC2CCC3[n+]2ccc(C(=O)OC)cc2)cc1.O=[N+]([O-])[O-].O=[N+]([O-])[O-] (centres unmarked) [Compound 5c, 2,6-di-4-methoxycarbonylpyridinium-9-thiabicyclo[3.3.1]nonane dinitrate] | (3.66 ± 0.33) × 10^−2 h^−1 | (0.16 ± 0.01) × 10^−2 h^−1 | 0.3 |  |
| NC(=O)c1ccc[n+](C2CCC3SC2CCC3[n+]2cccc(C(N)=O)c2)c1.O=[N+]([O-])[O-].O=[N+]([O-])[O-] (centres unmarked) [Compound 5d, 2,6-di-3-carbamylpyridinium-9-thiabicyclo[3.3.1]nonane dinitrate] | (3.18 ± 0.32) × 10^−2 h^−1 |  |  |  |
| NC(=O)c1cc[n+](C2CCC3SC2CCC3[n+]2ccc(C(N)=O)cc2)cc1.O=[N+]([O-])[O-].O=[N+]([O-])[O-] (centres unmarked) [Compound 5e, 2,6-di-4-carbamylpyridinium-9-thiabicyclo[3.3.1]nonane dinitrate] | (1.62 ± 0.10) × 10^−2 h^−1 |  |  | 1.00 |
| Brc1ccc[n+](C2CCC3SC2CCC3[n+]2cccc(Br)c2)c1.O=[N+]([O-])[O-].O=[N+]([O-])[O-] (centres unmarked) [Compound 5f, 2,6-di-3-bromopyridinium-9-thiabicyclo[3.3.1]nonane dinitrate] | (6.59 ± 0.58) × 10^−2 h^−1 |  |  |  |
| FC(F)(F)c1ccc[n+](C2CCC3SC2CCC3[n+]2cccc(C(F)(F)F)c2)c1.O=[N+]([O-])[O-].O=[N+]([O-])[O-] (centres unmarked) [Compound 5g, 2,6-di-3-trifluoromethylpyridinium-9-thiabicyclo[3.3.1]nonane dinitrate] | (74.8 ± 5.4) × 10^−2 h^−1 | (5.87 ± 0.71) × 10^−2 h^−1 | 11 |  |
| N#Cc1ccc[n+](C2CCC3SC2CCC3[n+]2cccc(C#N)c2)c1.O=[N+]([O-])[O-].O=[N+]([O-])[O-] (centres unmarked) [Compound 5h, 2,6-di-3-cyanopyridinium-9-thiabicyclo[3.3.1]nonane dinitrate] | (10.8 ± 0.98) × 10^−2 h^−1 | (1.14 ± 0.16) × 10^−2 h^−1 | 2.1 |  |
| COc1cc(Br)c[n+](C2CCC3SC2CCC3[n+]2cc(Br)cc(OC)c2)c1.O=[N+]([O-])[O-].O=[N+]([O-])[O-] (centres unmarked) [Compound 5i, 2,6-di-3-bromo-5-methoxylpyridinium-9-thiabicyclo[3.3.1]nonane dinitrate] | (7.51 ± 0.53) × 10^−2 h^−1 | (0.55 ± 0.04) × 10^−2 h^−1 | 1 |  |
| NC(=O)c1cc(Br)c[n+](C2CCC3SC2CCC3[n+]2cc(Br)cc(C(N)=O)c2)c1.O=S(=O)([O-])C(F)(F)F.O=S(=O)([O-])C(F)(F)F (centres unmarked) [Compound 5j, 2,6-di-3-bromo-5-carbamylpyridinium-9-thiabicyclo[3.3.1]nonane ditriflate] |  | (9.34 ± 0.87) × 10^−2 h^−1 | 17 |  |
| COC(=O)c1cc(C(=O)OC)c[n+](C2CCC3SC2CCC3[n+]2cc(C(=O)OC)cc(C(=O)OC)c2)c1.O=S(=O)([O-])C(F)(F)F.O=S(=O)([O-])C(F)(F)F (centres unmarked) [Compound 5k, 2,6-di-3,5-dimethoxycarbonylpyridinium-9-thiabicyclo[3.3.1]nonane ditriflate] |  | (11.9 ± 1.13) × 10^−2 h^−1 | 22 |  |
| COC(=O)c1cc(Br)c[n+](C2CCC3SC2CCC3[n+]2cc(Br)cc(C(=O)OC)c2)c1.O=S(=O)([O-])C(F)(F)F.O=S(=O)([O-])C(F)(F)F (centres unmarked) [Compound 5l, 2,6-di-3-bromo-5-methoxycarbonylpyridinium-9-thiabicyclo[3.3.1]nonane ditriflate] |  | (10.9 ± 1.81) × 10^−2 h^−1 | 20 |  |
